# Where two headings read alike, the source gives them in different places.
# Key:
# RG2TK+ cells = test: Ganciclovir sensitivity assay (methyl-[3H]-thymidine accumulation, percent of control); format: cell-based, rat; settings: for IC50: Rattus norvegicus, read-out: ganciclovir ED50
# Protocol: Transduction of the HSV1-TK gene into RG2 cells. The STK retrovirus was obtained from filtered (0.1 μm) supernatants of gp-STK-A2 producer cell line cultures grown from a 50% confluent monolayer over 24 hours in Dulbecco's high-glucose medium with 10% bovine serum. Transduction of RG2 cells was accomplished by exposing the cell monolayer to the filtrate for 8 hours in the presence of Polybrene™ (8 μg/ml). Following a 24 hour incubation in standard medium, a selection medium containing Geneticin™ disulfate (800 μg/ml) was used to eliminate cells not expressing the neomycin resistance gene. The selection medium was changed daily to remove dead cells. After 7 days, a bulk culture of transduced RG2 cells (RG2TK+) was harvested for further propogation.
# (§1) Sensitivity to ganciclovir and selection of "high" and "low" sensitivity clones. […] Following one day of growth, the culture medium of RG2TK+ and RG2 cells in Costar™ 96-well plates was replaced with ganciclovir™-containing medium (Cytovene™; Syntax Laboratories, Inc.; Palo Alto, Calif.) in the following concentrations: 3, 1, 0.6, 0.3, 0.1, 0.06, 0.03, 0.01, 0,006, 0.003, 0.001, 0.0006, 0.0003, 0.0001, 0.00006 mg/ml and ganciclovir™-free control media. The ganciclovir™-containing and control incubation media were changed daily. […] Radioactivity measured in each ganciclovir™-containing well was expressed as a percent of control (ganciclovir™-free) activity.
# RG2 cells = test: as above; format: cell-based; settings: Rattus norvegicus; naive RG2 cells; read-out: ganciclovir ED50
# Protocol: as §1
# HSV1-TK = HSV1-TK (Human alphaherpesvirus 1 strain 17, UniProt P0DTH5); test: Accumulation of radiolabelled marker substrates in RG2TK+ transduced and RG2 wild-type cells, normalized to TdR; format: cell-based, herpes simplex virus
# Protocol: Source of radiolabelled "marker substrates". […] No carrier-added 5-[^123 I]-deoxyuridine (IUdR) was prepared by reacting 2-deoxyuridine (UdR) with carrier-free ^123 I-labelled sodium iodide in an iodogen coated reaction vial.
# Comparison of "marker substrates" for identifying HSV1-tk gene expression in tissue culture. […] Each of these substrates were developed for or used as an anti-viral agent; they are phosphorylated by HSV1-TK and can be radiolabelled for noninvasive imaging.
# Wild-type (nontransduced) RG2 cells were studied as a reference control. […] The cells were dislodged from the Petri dishes with a soft scraper, poured into 15 ml conical tubes, centrifuged and the medium aspirated. The tubes were cut to facilitate removing cells; they were blotted, placed in pre-weighed vials, weighed and prepared for counting. Samples were assayed for ^3 H- and ^14 C-radioactivity using a Packard B1600 TriCarb beta spectrometer using dual-channel and external standard splash and quench correction techniques. The medium was also counted before and following incubation. The data was expressed as a harvested cell-to-medium concentration ratio (dpm/g cells.div.dpm/ml medium).
# Data analysis. […] These two related measures are useful to evaluate the intensity of the images (e.g., high "sensitivity") and the ability to differentiate between HSV1-TK and endogenous-TK in the images (e.g., high "selectivity"). The "selectivity" measure is not interpreted as a relative sensitivity (i.e., a value of 1 indicating equal sensitivity) of the substrate to HSV1-TK vs. endogenous-TK. […] They are intended for the direct comparison of substrates only.
# Sequence of HSV1-TK (P0DTH5 whole entry): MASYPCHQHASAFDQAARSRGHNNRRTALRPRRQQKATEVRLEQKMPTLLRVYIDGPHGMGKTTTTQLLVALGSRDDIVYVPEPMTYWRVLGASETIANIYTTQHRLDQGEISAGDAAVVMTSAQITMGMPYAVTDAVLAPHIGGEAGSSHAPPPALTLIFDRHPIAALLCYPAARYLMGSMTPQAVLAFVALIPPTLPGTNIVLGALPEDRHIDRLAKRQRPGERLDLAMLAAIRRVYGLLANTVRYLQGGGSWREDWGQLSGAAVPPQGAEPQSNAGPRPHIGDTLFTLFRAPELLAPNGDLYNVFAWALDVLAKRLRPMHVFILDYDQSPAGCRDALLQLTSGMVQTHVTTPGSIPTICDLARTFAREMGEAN
structure (smiles),measurement,setting,value
"Nc1nc2c(ncn2COC(CO)CO)c(=O)[nH]1 [ganciclovir, 9-(1,3-dihydroxy-2-propoxymethyl)-guanine]",fold more sensitive to ganciclovir compared to bulk RG2TK+ cells,"RG2TK+ cells; ""high"" sensitivity RG2TK+ clones (clone #16) vs bulk RG2TK+",5 fold
same,fold less sensitive to ganciclovir compared to bulk RG2TK+ cells,"RG2TK+ cells; ""low"" sensitivity RG2TK+ clones vs bulk RG2TK+",roughly 30 fold
same,IC50,"RG2TK+ cells; ""high-sensitivity"" RG2TK+ clone #16",~0.2 µg/mL
same,IC50,"RG2TK+ cells; ""low-sensitivity"" RG2TK+ clone #32",~30 µg/mL
same,IC50,RG2TK+ cells; bulk culture of transduced RG2TK+ cells,1 µg/mL
same,fold more sensitive to ganciclovir than RG2 cells,RG2TK+ cells; bulk RG2TK+ cells vs wild-type RG2 cells,approximately 200 fold
same,fold more sensitive to ganciclovir than wild-type RG2 cells,RG2TK+ cells; high-sensitivity RG2TK+ clone #16 vs wild-type RG2,approximately 1000 fold
same,IC50,RG2 cells,200 µg/mL
same,Selectivity+ Sensitivity*/(substrate/TdR) for RG2,HSV1-TK; Data from FIG. 5,0.143
same,Sensitivity* Δ(substrate/TdR)/Δ(HSV1TK mRNA/S28 RNA IOD),HSV1-TK; Data from FIG. 5,0.0004
same,accumulation of ganciclovir by RG2TK+ cells compared to that of FIAU,HSV1-TK; RG2TK+ cells,less than 5%
same,accumulation of ganciclovir by RG2TK+ cells compared to that of IUdR,HSV1-TK; RG2TK+ cells,< 3%
same,accumulation in bulk RG2TK+ cells relative to wild-type RG2 cells,"HSV1-TK; normalized to TdR, FIGS. 4 and 5B",5.6 fold
